Experimental data as given in patent US20230100838A1 (Revolution Medicines, Inc., priority 2019, published 2023).

Legend:
Format in all cases: binding
K-Ras G12S = K-Ras G12S (Homo sapiens, UniProt P01116, G12S); test: K-Ras G12S cross-linking assay (comparable procedure, conjugate formation, TOF mass spectrometry)
Summary of the method: (§1)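 5 μM protein (final, from 50 μM) in HEPES/NaCl/MgCl2 buffer pH 7.4 with compound typically at 2, 10 and 25 μM, room temperature, 1 and 24 h endpoints; formic acid quench. Intact-protein LC–TOF MS; percent modification is covalent adduct peak height over total K-Ras peak height.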

[1] = molecular target: T1, GDP-loaded K-Ras (1-169) G12D, C51S, C80L, C118S (Homo sapiens, UniProt P01116, C118S/C51S/C80L/G12D); test: K-Ras G12D(GDP) cross-linking assay (conjugate formation, TOF mass spectrometry); details: percent covalently modified K-Ras by MS, room temperature, typical compound conc. 2, 10, 25 μM, endpoints 1 and 24 h
T1 construct: GDP-loaded K-Ras (1-169) G12D, C51S, C80L, C118S
Summary of the method: as §1

[2] = molecular target: T2, GDP-loaded K-Ras (1-169) C51S, C80L, C118S (Homo sapiens, UniProt P01116, C118S/C51S/C80L); test: K-Ras WT (GDP) cross-linking assay (conjugate formation, TOF mass spectrometry); details: percent covalently modified K-Ras by MS, room temperature, typical compound conc. 2, 10, 25 μM, endpoints 1 and 24 h
T2 construct: GDP-loaded K-Ras (1-169) C51S, C80L, C118S
Summary of the method: as §1

[3] = Table 5, percent covalently modified K-Ras by MS
[4] = Table 4, percent covalently modified K-Ras by MS

| G12S x-linking (%) (K-Ras G12S; [3]) | G12D x-linking (%) ([1]; Table 5) | WT x-linking (%) ([2]; Table 5) | G12S x-linking (%) (K-Ras G12S; [4]) | G12D x-linking (%) ([1]; Table 4) | WT x-linking (%) ([2]; Table 4) | Compound |
| --- | --- | --- | --- | --- | --- | --- |
| + (0 < x ≤ 10) | + (0 < x ≤ 20) | + (0 < x ≤ 20) | – | – | – | Cc1cccc2cccc(N3CCc4c(nc(OC[C@@H]5CCCN5C)nc4N4CCC(N=C=NCCCN(C)c5ccccc5)CC4)C3)c12 [Example 90, N-methyl-N-(3-((((1-(7-(8-methylnaphthalen-1-yl)-2-(((S)-1-methylpyrrolidin-2-yl)methoxy)-5,6,7,8-tetrahydropyrido[3,4-d]pyrimidin-4-yl)piperidin-4-yl)imino)methylene)amino)propyl)aniline] |
| ++ (10 < x ≤ 100) | +++ (40 < x ≤ 100) | ++ (20 < x ≤ 100) | – | – | – | COCCN=C=N[C@H]1C[C@H](Nc2nc(OC[C@@H]3CCCN3C)nc3c2CCN(c2cccc4cccc(C)c24)C3)C1 [Example 72, N-((1r,3S)-3-((((2-methoxyethyl)imino)methylene)amino)cyclobutyl)-7-(8-methylnaphthalen-1-yl)-2-(((S)-1-methylpyrrolidin-2-yl)methoxy)-5,6,7,8-tetrahydropyrido[3,4-d]pyrimidin-4-amine] |
| – | – | – | + (0 < x ≤ 10) | + (0 < x ≤ 20) | + (0 < x ≤ 20) | CC(=O)N1CC1C(=O)N1CCN(c2ncnc3c(F)c(-c4ccccc4F)c(Cl)cc23)CC1 (stereo not drawn) [Example 17, 1-(2-(4-(6-chloro-8-fluoro-7-(2-fluorophenyl)quinazolin-4-yl)piperazine-1-carbonyl)aziridin-1-yl)ethan-1-one] |
| – | – | – | + (0 < x ≤ 10) | + (0 < x ≤ 20) | + (0 < x ≤ 20) | Cc1cccc2cccc(N3CCc4c(nc(OC[C@@H]5CCCN5C)nc4N4CCC(N(C)C(=O)C5CN5S(C)(=O)=O)CC4)C3)c12 (stereo partly drawn) [Example 44, N-methyl-(1-(7-(8-methylnaphthalen-1-yl)-2-(((S)-1-methylpyrrolidin-2-yl)methoxy)-5,6,7,8-tetrahydropyrido[3,4-d]pyrimidin-4-yl)piperidin-4-yl)-1-(methylsulfonyl)aziridine-2-carboxamide] |
| ++ (10 < x ≤ 100) | +++ (40 < x ≤ 100) | ++ (20 < x ≤ 100) | – | – | – | Cc1cccc2cccc(N3CCc4c(nc(OC[C@@H]5CCCN5C)nc4N4CCC(N=C=NCCCN5CCOCC5)CC4)C3)c12 [Example 85, N-(1-(7-(8-methylnaphthalen-1-yl)-2-(((S)-1-methylpyrrolidin-2-yl)methoxy)-5,6,7,8-tetrahydropyrido[3,4-d]pyrimidin-4-yl)piperidin-4-yl)-N-(3-morpholinopropyl)methanediimine] |

| Compound | G12S x-linking (%) (K-Ras G12S; [3]) | G12D x-linking (%) ([1]; Table 5) | WT x-linking (%) ([2]; Table 5) | G12S x-linking (%) (K-Ras G12S; [4]) | G12D x-linking (%) ([1]; Table 4) | WT x-linking (%) ([2]; Table 4) |
| --- | --- | --- | --- | --- | --- | --- |
| Cc1ccnc(C(C)C)c1-n1c(=O)nc(N2CCN(C(=O)[C@H]3CN3)C[C@@H]2C)c2cc(F)c(-c3c(O)cccc3F)nc21 [Example 65, 4-((S)-4-((R)-aziridine-2-carbonyl)-2-methylpiperazin-1-yl)-6-fluoro-7-(2-fluoro-6-hydroxyphenyl)-1-(2-isopropyl-4-methylpyridin-3-yl)pyrido[2,3-d]pyrimidin-2(1H)-one] | + (0 < x ≤ 10) | + (0 < x ≤ 20) | + (0 < x ≤ 20) | – | – | – |
